Entries after “also recorded” stand apart in the source; their conditions may differ. Like-named read-outs stand apart in the source and are kept apart here. Where a SMILES comes first, the peptide text is derived from it. [ ]: non-standard residue; d: D form. pGlu = O=C1CC[C@@H](C(=O)O)N1
How the values were obtained:
[1] = Pharmacokinetics studies in mice (i.v. and s.c. bolus, plasma LC–MS/MS); assay type: in vivo; settings: mouse; for AUC: tail vein blood over 90 min
Method: Male and female mice aged between 12–18 weeks old were used for these studies. Gast p59−79, ChgA 435−462a and Sst 25−36 were administered intravenously (i.v.) at 1 mg/kg and subcutaneously (s.c.) at various doses (see Fig. 7A, B and C for details on specific doses for each peptide). Blood samples were collected using EDTA coated microvette tubes (Starsedt, Leicester, UK) from the tail vein at various time points over 90 min. Blood was centrifuged (2000 g, 10 min, 4 °C) and the plasma separated. A 0.1 M sodium citrate (Sigma-Aldrich) buffer (adjusted to pH 3 with citric acid (Sigma-Aldrich)) was added to the plasma at a dilution of 1 in 10 to prevent degradation of Gast p59−79 and Sst 25−36. Plasma was stored -70 °C till extraction.
On the day of analysis, plasma samples were thawed, spiked with a stable isotope labelled version of Gast p59−79, ChgA 435−462a or Sst 25−36, and crashed with 200 μL 80 % ACN. After centrifuging, supernatants were removed and dried under gaseous nitrogen at 40 °C using a SPE Dry evaporator system (Biotage, Upsalla, Sweden). SPE was performed as described previously.
A Xevo TQ-XS triple quadrupole mass spectrometer coupled to H-class Aquity UPLC system enabled high throughput and targeted sample analysis. The column used was a Waters HSS T3 2.1 × 50 mm column at 60 °C and flowing at 350 μL/min. LC–MS/MS analysis was performed using positive ESI with a spray voltage of 3 kV, desolvation temperature 600°C, gas flow rate 1000 L/h and cone voltage of 40 V. Solvent A was 0.1 % FA in water (v/v) and Solvent B was 0.1 % FA in ACN (v/v). Each sample (40 μL per sample) was injected onto the column for 30 s with starting conditions set at 90 % A and 10 % B before the % B was increased to 50 % over the course of 3.5 min. The column was flushed with 90 % B for 1.5 min before initial conditions were restored. Total run time per sample was 5.5 min. Table 1 details the specifications used to quantify Gast p59−79, ChgA 435−462a, Sst 25−36 and their stable isotope labelled versions on a Xevo TQ-XS mass spectrometer.
Raw data files obtained on the Xevo TQ-XS triple quadrupole mass spectrometer were analysed using TargetLynx XS v4.2 software (Waters). Peptides were quantified by integrating the corresponding peaks and normalised to an internal standard if available. For pharmacokinetics studies, the concentration of peptide was estimated by comparing against a calibration line. SAAM II v2.2.1 (The Epsilon Group) with a Rosenbrock integrator and no maximum number of iterations was used to create a model for Gast p59−79 distribution and elimination upon single dose administration to mice.

[2] = system: diet-induced obese mice (DIO); test: Osmotic pump study 3: IP GTT, OGTT and ITT in diet-induced obese mice; assay type: in vivo, mouse; settings: vs vehicle
Method: Three studies were performed to assess the in vivo efficacy of the ChgA 435−462a and Gast p59−79 (see Figure legends for specifics of each study). Peptides were administered by osmotic pumps implanted subcutaneously under isoflurane anaesthesia. Food intake was assessed using BioDaq (Research Diets) automated food intake cages. Intraperitoneal (IP) glucose tolerance tests (GTT) were performed by administering a 2 g/kg challenge of glucose and measuring blood glucose levels from the tail vein whereas oral GTT (OGTT) were performed using 1 g/kg glucose challenge. Insulin tolerance tests (ITT) were performed by administering a 0.75 U/kg dose of insulin IP to the mice and assessing blood glucose levels at 15, 30, 45, 60, 90 and 120 min post-insulin challenge.
Fig. 7 In vivo characterisation of novel peptides. (A-C) PK data of ChgA 435-462a, Gast p59-79, Sst 25-36. (D-G) Data from 1st osmotic pump study where n = 5/group. […] Body weights (E) and food intake (D) were measured throughout the study. Week 0 and day -7 represent baseline data prior to treatment onset. Glucose tolerance was assessed every 7 days after surgery via an IP GTT using a 2 g/kg glucose challenge. Results from IP GTT on day 28 shown in (F, G). Statistical analysis performed using Kruskal-Wallis test with post-hoc Dunn tests. (H, I) Results from osmotic pump study 2 where n = 8/group. Mice singly housed and infused with either Gast p59-79 or vehicle for 7 days. 2 g/kg IP GTT performed on day 7 and results shown in H and I. Statistical analysis performed using T test. (J-P) Results from osmotic pump study 3 where n = 7/group. Mice singly housed and infused with either Gast p59-79 or vehicle for 7 days. 2 g/kg IP GTT performed on day 7 (J, K) and 1 g/kg OGTT performed on day 14 (L, M). 0.75 U/kg ITT performed on day 21 (N, O). Body weights vs AUC during ITT on day 21 (P). Error bars represent SD. *P < 0.05, **p < 0.01, ***p < 0.005.

[3] = system: phosphorylated-AKT (pAKT); test: Post-mortem assessment of insulin sensitivity (pAKT / total-AKT, MSD kits); assay type: in vivo, mouse; settings: DIO mice, 28 days after pump surgery, 15 min after 0.75 U/kg insulin challenge; treatment vs vehicle
Method: At the end of the 3rd osmotic pump study, mice were given a 0.75 U/kg insulin challenge and culled after 15 min. The liver, white adipose tissue (WAT) and skeletal muscle were dissected out and snap frozen in liquid nitrogen and stored at −70 °C until analysis.
50−100 mg pieces of WAT, liver and skeletal muscle were homogenised in MSD (Rockville, MD, USA) lysis buffer with various protease inhibitors supplied by MSD and Qiagen metal bead. Homogenised tissue was allowed to rest at 4 °C for 2 h to allow protein solubilisation and then centrifuged (10 000 g, 10 min, 4 °C). Supernatants were aspirated and stored at -70 °C till analysis. Protein content of all homogenised tissue samples was assessed using a Pierce BCA protein assay kit (Thermo Fisher Scientific) according to the manufacturer’s instructions.
Tissue homogenates were diluted in MSD lysis buffer to the same protein content. Total and phosphorylated-AKT (pAKT) were quantified using respective kits from MSD (total-AKT kit catalogue number: K150MOD-1, pAKT (Ser473) kit catalogue number: K151CAD-1) according to the manufacturer’s instructions.
Fig. 8 Phosphorylated-AKT (pAKT) expressed as a percentage of total AKT in liver (A), skeletal muscle (B) and white adipose tissue (WAT) (C) 15 min after a 0.75 U/kg insulin challenge. (D) Body weights vs pAKT as a percentage of total-AKT. […]

CC[C@H](C)[C@H](NC(=O)[C@H](Cc1ccccc1)NC(=O)[C@H](Cc1c[nH]cn1)NC(=O)[C@H](CCC(N)=O)NC(=O)[C@@H]1CCCN1C(=O)CNC(=O)[C@H](CCC(N)=O)NC(=O)[C@@H]1CCCN1C(=O)CNC(=O)[C@H](CC(C)C)NC(=O)[C@@H]1CCC(=O)N1)C(=O)N[C@@H](C)C(=O)N[C@@H](CC(=O)O)C(=O)N[C@@H](CC(C)C)C(=O)N[C@@H](CO)C(=O)N[C@@H](CCCCN)C(=O)N[C@@H](CCCCN)C(=O)N[C@@H](CCC(N)=O)C(=O)N[C@@H](CCCNC(=N)N)C(=O)N1CCC[C@H]1C(=O)N[C@@H](CCCNC(=N)N)C(=O)O [Gast p59−79] ([pGlu]LGPQGPQHFIADLSKKQRPR-OH; C-terminus assumed)
AUC ([1]; both sexes, C57BL/6 N J, iv, 1 mg/kg, plasma LC–MS/MS): 503 ng·h/mL
Clearance ([1]; both sexes, C57BL/6 N J, plasma, iv, i.v., 1 mg/kg, read-out: Clearance (converted)): 0.332
AUC ([1]; both sexes, C57BL/6 N J, sc, 10 mg/kg, plasma LC–MS/MS): 558 ng·h/mL
half-life ([1]; both sexes, C57BL/6 N J, sc, administered subcutaneously, plasma LC–MS/MS): 18.1 min
mass delivery rate required to obtain steady state concentration of 1 nM ([1]; estimated from PK data (SAAM II model), osmotic pump infusion): 0.77 mg/kg/day
Clearance ([1]; s.c., 10 mg/kg): 0.298 mL/min/kg
Bioavailability (%) ([1]; s.c., 10 mg/kg, plasma LC–MS/MS): 110%
bioavailability when administered subcutaneously (in words) ([1]; s.c., text summary of table S1): good bioavailability
AUC during ITT ([2]; 0.75 U/kg ITT day 21, n = 7/group, significant effect of body weight on AUC (p = 0.009), two-way ANOVA): also evident in the AUCs (p = 0.011)
blood glucose levels in ITT ([2]; 0.75 U/kg insulin IP on day 21, n = 7/group, confounded by body weight): differed at 90 and 120 min post-insulin challenge; also recorded: appeared to slow glucose normalisation following an ITT
glucose tolerance (IP GTT and OGTT) in DIO mice ([2]; osmotic pump, 2 g/kg IP GTT day 7, 1 g/kg OGTT day 14, n = 7/group, confounded by weight loss): did not suggest that Gast p59−79 affected glucose tolerance
percentage of pAKT (of total AKT) in liver, WAT and skeletal muscle [3]: No effect

From article PMC8121762, “Peptidomics of enteroendocrine cells and characterisation of potential effects of a novel preprogastrin derived-peptide on glucose tolerance in lean mice” (Peptides, 2021)
